# Assays:
# [1] = target: T1, furin (endogenous protease) in U20S cells (Homo sapiens, UniProt P09958); assay: Furin cell-based assay (image-based, Golgi-targeted GFP with BMP10 furin/PCSK cleavage site); conditions: 24-hour incubation, read-out: furin golgi cell pXC50 (converted);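 further: Read-out is mean GFP fluorescence of Golgi puncta per cell by high-content imaging, retained when furin inhibited, over an eleven-point 0.00017–10 µM series, four-parameter fit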
# T1 construct: the endogenous protease cleaves GFP; endogenous in cells; host or cells: U2OS cells transduced with a BacMam reporter
# T1 sequence (P09958 108-794): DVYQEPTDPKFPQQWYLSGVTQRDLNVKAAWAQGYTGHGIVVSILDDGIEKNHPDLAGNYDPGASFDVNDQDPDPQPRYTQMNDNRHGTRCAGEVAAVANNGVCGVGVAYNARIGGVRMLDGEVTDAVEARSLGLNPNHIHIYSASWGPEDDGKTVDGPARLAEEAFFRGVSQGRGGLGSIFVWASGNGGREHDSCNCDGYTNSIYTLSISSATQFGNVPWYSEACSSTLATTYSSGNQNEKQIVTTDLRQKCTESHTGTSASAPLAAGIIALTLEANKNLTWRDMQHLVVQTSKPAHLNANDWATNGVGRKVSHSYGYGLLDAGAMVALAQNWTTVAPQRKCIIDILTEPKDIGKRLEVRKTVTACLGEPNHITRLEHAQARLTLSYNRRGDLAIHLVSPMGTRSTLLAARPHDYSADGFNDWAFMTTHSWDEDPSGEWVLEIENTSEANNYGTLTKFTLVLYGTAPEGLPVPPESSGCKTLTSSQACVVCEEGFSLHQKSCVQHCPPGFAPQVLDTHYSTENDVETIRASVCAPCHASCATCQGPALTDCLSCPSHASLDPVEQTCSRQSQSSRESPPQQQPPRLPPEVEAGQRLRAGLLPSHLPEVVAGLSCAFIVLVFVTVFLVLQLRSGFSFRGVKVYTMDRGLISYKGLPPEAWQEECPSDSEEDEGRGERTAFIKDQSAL
# [2] = target: T2, Furin (108-574-Tev-Flag-His) enzyme (Homo sapiens, UniProt P09958); assay: Furin enzyme assay; format: biochemical; conditions: for IC50: read-out: furin enzyme pIC50 (converted)
# T2 construct: Furin (108-574-Tev-Flag-His) enzyme was expressed and purified from CHO cells; TEV cleavage site (C); FLAG (C); His (C); made in house; host or cells: CHO cells
# T2 sequence (P09958 108-574): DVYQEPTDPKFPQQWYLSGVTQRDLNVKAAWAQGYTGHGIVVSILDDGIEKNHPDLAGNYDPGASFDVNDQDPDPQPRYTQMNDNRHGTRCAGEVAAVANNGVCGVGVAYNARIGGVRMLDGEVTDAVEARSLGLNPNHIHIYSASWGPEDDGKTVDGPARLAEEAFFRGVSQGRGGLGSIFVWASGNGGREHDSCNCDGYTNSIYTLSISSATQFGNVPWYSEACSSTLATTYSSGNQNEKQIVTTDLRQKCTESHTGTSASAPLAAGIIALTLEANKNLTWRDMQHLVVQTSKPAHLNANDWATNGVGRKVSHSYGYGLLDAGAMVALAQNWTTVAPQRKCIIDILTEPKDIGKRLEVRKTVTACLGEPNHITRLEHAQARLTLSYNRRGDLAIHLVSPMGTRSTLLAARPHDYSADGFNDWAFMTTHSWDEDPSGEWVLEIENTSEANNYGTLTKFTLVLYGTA
# How it was run: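 CHO-expressed, purified furin construct at 40 pM in 100 mM HEPES pH7.5, 1 mM CaCl2, 0.005% Triton X-100. Eleven-point 1:3 series, 0.00017–10 μM final, incubated 2 h at room temperature and read on Envision. pXC50 from four-parameter fit.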
EC50 [1],furin enzyme pIC50 [2],IC50 [2],SMILES
31.6 nM,8.2,,"CC(=O)NCC1CCN(Cc2cc(Oc3cnc(N4CCN(CCC(N)=O)CC4)nc3)nc(-c3cc(F)c(F)c(Cl)c3)c2)CC1 [Example 273, 3-(4-(5-((4-((4-(acetamidomethyl)piperidin-1-yl)methyl)-6-(3-chloro-4,5-difluorophenyl)pyridin-2-yl)oxy)pyrimidin-2-yl)piperazin-1-yl)propanamide]"
6.31 nM,9,,"CNC(=O)NCC1CCN(Cc2cc(Oc3cnc(N4CCN(CCCS(C)(=O)=O)CC4)nc3)nc(-c3cc(F)cc(Cl)c3)c2)CC1 [Example 274, 1-((1-((2-(3-chloro-5-fluorophenyl)-6-((2-(4-(3-(methylsulfonyl)propyl)piperazin-1-yl)pyrimidin-5-yl)oxy)pyridin-4-yl)methyl)piperidin-4-yl)methyl)-3-methylurea]"
20 nM,8.6,,"CC(C)(O)CCN1CCN(c2ncc(Oc3cc(CN4CCC(CC(=O)O)CC4)cc(-c4cc(Cl)cc(Cl)c4)n3)cn2)CC1 [Example 279, 2-(1-((2-(3,5-dichlorophenyl)-6-((2-(4-(3-hydroxy-3-methylbutyl)piperazin-1-yl)pyrimidin-5-yl)oxy)pyridin-4-yl)methyl)piperidin-4-yl)acetic acid]"
7.94 nM,,0.2 nM,"CC(=O)NCC1CCN(Cc2cc(Oc3cnc(N4CCN(C(C)CC(=O)O)CC4)nc3)nc(-c3cc(Cl)cc(Cl)c3)c2)CC1 (stereo not shown) [Example 282, 3-(4-(5-((4-((4-(acetamidomethyl)piperidin-1-yl)methyl)-6-(3,5-dichlorophenyl)pyridin-2-yl)oxy)pyrimidin-2-yl)piperazin-1-yl)butanoic acid]"
25.1 nM,9.1,,"CC(=O)NCC1CCN(Cc2cc(Oc3cnc(N4CCN(CC(C)C(=O)O)CC4)nc3)nc(-c3cc(Cl)cc(Cl)c3)c2)CC1 (stereo not shown) [Example 283, 3-(4-(5-((4-((4-(acetamidomethyl)piperidin-1-yl)methyl)-6-(3,5-dichlorophenyl)pyridin-2-yl)oxy)pyrimidin-2-yl)piperazin-1-yl)-2-methylpropanoic acid]"
1.26 nM,10.1,,"CC(=O)NCC1CCN(Cc2cc(Oc3cnc(N4CCN(CC(C)C(N)=O)CC4)nc3)nc(-c3cc(Cl)cc(Cl)c3)c2)CC1 (stereo not shown) [Example 284, 3-(4-(5-((4-((4-(acetamidomethyl)piperidin-1-yl)methyl)-6-(3,5-dichlorophenyl)pyridin-2-yl)oxy)pyrimidin-2-yl)piperazin-1-yl)-2-methylpropanamide]"
63.1 nM,8.1,,"CC(=O)NCC1CCN(Cc2cc(Oc3cnc(N4CCN(CCS(C)(=O)=O)CC4)nc3)nc(-c3cc(Cl)cc(Cl)c3)c2)CC1 [Example 285, N-((1-((2-(3,5-dichlorophenyl)-6-((2-(4-(2-(methylsulfonyl)ethyl)piperazin-1-yl)pyrimidin-5-yl)oxy)pyridin-4-yl)methyl)piperidin-4-yl)methyl)acetamide]"
7.94 nM,9.4,,"CC(=O)NCC1CCN(Cc2cc(Oc3cnc(N4CCN(CCS(N)(=O)=O)CC4)nc3)nc(-c3cc(Cl)cc(Cl)c3)c2)CC1 [Example 286, N-((1-((2-(3,5-dichlorophenyl)-6-((2-(4-(2-sulfamoylethyl)piperazin-1-yl)pyrimidin-5-yl)oxy)pyridin-4-yl)methyl)piperidin-4-yl)methyl)acetamide]"
7.94 nM,10.7,,"CNC(=O)NCC1CCN(Cc2cc(Oc3cnc(N4CCN(CC(C)C(N)=O)CC4)nc3)nc(-c3cc(Cl)cc(Cl)c3)c2)CC1 (stereo not shown) [Example 291, 3-(4-(5-((6-(3,5-dichlorophenyl)-4-((4-((3-methylureido)methyl)piperidin-1-yl)methyl)pyridin-2-yl)oxy)pyrimidin-2-yl)piperazin-1-yl)-2-methylpropanamide]"

# Second part, the molecule before the results:
SMILES,EC50 [1],furin enzyme pIC50 [2],IC50 [2]
"CS(=O)(=O)CCCN1CCN(c2ccc(Oc3cc(CN4CCC(CCC(=O)O)CC4)cc(-c4cc(Cl)cc(Cl)c4)n3)cn2)CC1 [Example 271, 3-(1-((2-(3,5-dichlorophenyl)-6-((6-(4-(3-(methylsulfonyl)propyl)piperazin-1-yl)pyridin-3-yl)oxy)pyridin-4-yl)methyl)piperidin-4-yl)propanoic acid]",25.1 nM,8.9,
"CS(=O)(=O)CCCN1CCN(c2ncc(Oc3cc(CN4CCC(CCC(=O)O)CC4)cc(-c4cc(Cl)cc(Cl)c4)n3)cn2)CC1 [Example 272, 3-(1-((2-(3,5-dichlorophenyl)-6-((2-(4-(3-(methylsulfonyl)propyl)piperazin-1-yl)pyrimidin-5-yl)oxy)pyridin-4-yl)methyl)piperidin-4-yl)propanoic acid]",31.6 nM,9.8,
"COC(=O)NCC1CCN(Cc2cc(Oc3cnc(N4CCNCC4)nc3)nc(-c3cc(F)cc(Cl)c3)c2)CC1 [Example 275, methyl ((1-((2-(3-chloro-5-fluorophenyl)-6-((2-(piperazin-1-yl)pyrimidin-5-yl)oxy)pyridin-4-yl)methyl)piperidin-4-yl)methyl)carbamate]",100 nM,8.3,
"CS(=O)(=O)CCC1CCN(Cc2cc(Oc3ccc(N4CCN(CCC(=O)O)CC4)nc3)nc(-c3cc(Cl)cc(Cl)c3)c2)CC1 [Example 276, 3-(4-(5-((6-(3,5-dichlorophenyl)-4-((4-(2-(methylsulfonyl)ethyl)piperidin-1-yl)methyl)pyridin-2-yl)oxy)pyridin-2-yl)piperazin-1-yl)propanoic acid]",50.1 nM,9,
"NS(=O)(=O)CCC1CCN(Cc2cc(Oc3ccc(N4CCN(CCC(=O)O)CC4)nc3)nc(-c3cc(Cl)cc(Cl)c3)c2)CC1 [Example 277, 3-(4-(5-((6-(3,5-dichlorophenyl)-4-((4-(2-sulfamoylethyl)piperidin-1-yl)methyl)pyridin-2-yl)oxy)pyridin-2-yl)piperazin-1-yl)propanoic acid]",50.1 nM,,0.0316 nM
"O=C(O)CC1CCN(Cc2cc(Oc3cnc(N4CCN(CCC5(O)CC5)CC4)nc3)nc(-c3cc(Cl)cc(Cl)c3)c2)CC1 [Example 278, 2-(1-((2-(3,5-dichlorophenyl)-6-((2-(4-(2-(1-hydroxycyclopropyl)ethyl)piperazin-1-yl)pyrimidin-5-yl)oxy)pyridin-4-yl)methyl)piperidin-4-yl)acetic acid]",10 nM,9.4,
"CC(C)(CO)CN1CCN(c2ncc(Oc3cc(CN4CCC(CC(=O)O)CC4)cc(-c4cc(Cl)cc(Cl)c4)n3)cn2)CC1 [Example 280, 2-(1-((2-(3,5-dichlorophenyl)-6-((2-(4-(3-hydroxy-2,2-dimethylpropyl)piperazin-1-yl)pyrimidin-5-yl)oxy)pyridin-4-yl)methyl)piperidin-4-yl)acetic acid]",15.8 nM,8.3,
"CC(=O)NCC1CCN(Cc2cc(Oc3ccc(N4CCN(C(C)CC(=O)O)CC4)nc3)nc(-c3cc(Cl)cc(Cl)c3)c2)CC1 (stereo not shown) [Example 281, 3-(4-(5-((4-((4-(Acetamidomethyl)piperidin-1-yl)methyl)-6-(3,5-dichlorophenyl)pyridin-2-yl)oxy)pyridin-2-yl)piperazin-1-yl)butanoic acid]",39.8 nM,9.5,
"CC(=O)NCC1CCN(Cc2cc(Oc3ccc(N4CCN(CCS(=O)(=O)O)CC4)nc3)nc(-c3cc(Cl)cc(Cl)c3)c2)CC1 [Example 287, 2-(4-(5-((4-((4-(acetamidomethyl)piperidin-1-yl)methyl)-6-(3,5-dichlorophenyl)pyridin-2-yl)oxy)pyridin-2-yl)piperazin-1-yl)ethanesulfonic acid]",631 nM,,2 nM
"CCC(CN1CCN(c2ccc(Oc3cc(CN4CCC(CNC(C)=O)CC4)cc(-c4cc(Cl)cc(Cl)c4)n3)cn2)CC1)C(=O)O (stereo not shown) [Example 288, 2-((4-(5-((4-((4-(acetamidomethyl)piperidin-1-yl)methyl)-6-(3,5-dichlorophenyl)pyridin-2-yl)oxy)pyridin-2-yl)piperazin-1-yl)methyl)butanoic acid]",50.1 nM,9.4,
"CC(=O)NCC1CCN(Cc2cc(Oc3ccc(N4CCN(CCS(N)(=O)=O)CC4)nc3)nc(-c3cc(Cl)cc(Cl)c3)c2)CC1 [Example 289, N-((1-((2-(3,5-dichlorophenyl)-6-((6-(4-(2-sulfamoylethyl)piperazin-1-yl)pyridin-3-yl)oxy)pyridin-4-yl)methyl)piperidin-4-yl)methyl)acetamide]",5.01 nM,8.6,
"CNC(=O)NCC1CCN(Cc2cc(Oc3ccc(N4CCN(CCS(C)(=O)=O)CC4)nc3)nc(-c3cc(Cl)cc(Cl)c3)c2)CC1 [Example 290, 1-((1-((2-(3,5-dichlorophenyl)-6-((6-(4-(2-(methylsulfonyl)ethyl)piperazin-1-yl)pyridin-3-yl)oxy)pyridin-4-yl)methyl)piperidin-4-yl)methyl)-3-methylurea]",15.8 nM,8.2,
"CNC(=O)NCC1CCN(Cc2cc(Oc3cnc(N4CCN(CC(C)C(=O)O)CC4)nc3)cc(-c3cc(Cl)cc(Cl)c3)c2)CC1 (stereo not shown) [Example 292, 3-(4-(5-((3′,5′-dichloro-5-((4-((3-methylureido)methyl)piperidin-1-yl)methyl)-[1,1′-biphenyl]-3-yl)oxy)pyrimidin-2-yl)piperazin-1-yl)-2-methylpropanoic acid]",50.1 nM,9.4,
"CC(=O)NCC1CCN(Cc2cc(Oc3ccc(N4CCN(CCS(C)(=O)=O)CC4)nc3)cc(-c3cc(Cl)cc(Cl)c3)c2)CC1 [Example 293, N-((1-((3′,5′-dichloro-5-((6-(4-(2-(methylsulfonyl)ethyl)piper-1-yl)pyridin-3-yl)oxy)-[1,1′-biphenyl]-3-yl)methyl)piperidin-4-yl)methyl)acetamide]",158 nM,8.2,

# Source: patent publication US11773078B2, “Furin inhibitors” (Glaxosmithkline Intellectual Property Development Limited, priority 2018, dated 2023)
